Measured values from US20240091202A1, “COMPOSITIONS FOR THE TREATMENT OF EBV ASSOCIATED DISEASES OR CONDITIONS” (Universität Basel, priority 2021, published 2024).

Legend:
[1] = system: primary B cells infected with EBV B95-8; assay: EBV-driven B cell transformation efficiency assay (LCL outgrowth); format: cell-based, human; settings: for restoration of EBV's capacity to latently infect/transform B cells in the presence of BMS-986205: 10 μM BMS-986205 plus 50 μM L-KYNU or 500 μM NaMN, added day 0; for rescue of the capacity of EBV to transform IDO1-blocked B cells: summary statement, added together with IDO1 inhibitor
Experimental: Transformation efficiency was analyzed 5 weeks post infection and plotted against the added multiplicity of infection (MOI).
Data are represented as median value of indicated individual data points (n=4 independent experiments) relative to Ctrl siRNA (set at one), and compared using two-tailed Student's t-test.
An IDO1 inhibitor as disclosed herein can inhibit B cell transformation. Preferably, an IDO1 inhibitor as disclosed herein can inhibit EBV-induced B cell transformation. Transformation can be analysed by methods known in the art, for example using a transformation efficiency assay. In this assay B cells are seeded into a cell culture plate and infected with increasing virus concentrations. An IDO1 inhibitor can be added immediately after infection. After an incubation period of 5 weeks, the number of wells positive for LCL outgrowth are counted. Alternatively, any other suitable assay can be used. Suitably, an IDO1 inhibitor as disclosed herein can inhibit B cell transformation at a concentration of about 200 μM or less, about 150 μM or less, about 100 μM or less, about 50 μM or less, about 20 μM or less, about 15 μM or less, about 10 μM or less, about 5 μM or less, or about 1 μM or less, preferably about 100 μM or less or about 10 μM or less in the assays described herein. An IDO1 inhibitor as disclosed herein can be any one of the IDO inhibitors as disclosed herein that can inhibit B cell transformation, preferably EBV-induced B cell transformation.
Bulk B cells were seeded at a final concentration of 1×10^6 cells/ml in LCM-10 medium in a 96-well round bottom plate and infected with increasing concentration of EBV B95-8 (MOI 1×10^3-1×10^−4) by spinoculation. […] 5 weeks post-infection the number of wells with morphologic changes of transformation was counted and plotted as percentage of wells positive for LCL outgrowth against virus concentration in MOI.

[2] = system: primary B cells infected with EBV B95-8; assay: EBV-driven B cell proliferation, CellTrace Violet flow cytometry assay; format: cell-based, human; settings: different BMS-986205 concentrations added at 0 hpi; analyzed 8 days post infection; vs vehicle
Experimental: Proliferation was analyzed in the presence of vehicle or different BMS-986205 concentrations added on day 0 post EBV-infection of primary B cells (n=2). Uninfected and h.i. EBV infected cells served as internal controls. Proliferation was analyzed 8 days post infection by flow cytometry using a cell trace violet based assay.
Bulk B cells were stained with CellTraceTM Violet (Cell Proliferation Kit, ThermoFisher) then infected with EBV B95-8 as described above. Proliferation was assessed by determining the number of proliferated cells (cells that had proliferated at least once after infection) with IDO1 inhibitor/number of proliferated cells with vehicle control.

EBV-positive tumors = assay: EBV-positive tumor burden, humanized mouse model of EBV infection; format: in vivo, humanized NSG mice; settings: Epacadostat i.p. vs vehicle, n=10 each (FIG. 13A-13C); text concludes reduced lymphomagenesis
Experimental: […]. A Chi-Square test was used to compare groups.
(lower panels) are shown, stained with hematoxylin and eosin (HE) (left panels) and EBER FISH (right panels).
A Chi-Square test was used to compare groups. […].
(§1) A humanized mouse model of EBV infection was then used to directly interrogate the role of IDO1 in EBV-driven immune dysregulation and lymphomagenesis. Briefly, NSG mice (Jackson Laboratory, Bar Harbor, ME, USA) were injected with human hematopoietic progenitor cells shortly after birth, and reconstitution with human immune system components was confirmed at 3-4 months of age (data not shown). […]. Efficacy of Epacadostat-mediated IDO1 inhibition was verified by quantifying tryptophan and L-kynurenine plasma levels (FIG. 10). EBV viral loads were assessed in DNA preparations from whole blood at week 2, 3, 4, and 5 pi, and in the spleen at the day of sacrifice, using Taqman real-time PCR with modified primers (5′-[…]-3′ and 5′-[…]-3′) and a fluorogenic probe (5′-FAM […]-TAMRA-3′) to detect the conserved EBV BamHI-W fragment. Samples were analyzed in triplicates and run on a CFX384 Touch Real-time PCR Detection System (Bio-Rad). DNA from whole blood was extracted with the NucliSENS EasyMAG System (Biornerieux) and DNA from splenic tissues was isolated using the DNeasy Blood and Tissue kit (QIAGEN), according to the manufacturer's recommendations.

IDO1 = IDO1 inhibition in humanized mouse model of EBV infection: tryptophan and L-kynurenine levels; format: in vivo, humanized NSG mice; settings: Epacadostat 200 mg/kg i.p.; d -7, day 2 and day 7 pi; vs vehicle (FIG. 10)
Experimental: Data are shown as box and whiskers (median, IQR and range) and compared by two-tailed Student's t-test.
as §1

CD8+ T cells = assay: CD8+ T cell expansion, humanized mouse model of EBV infection; format: in vivo, humanized NSG mice; settings: Epacadostat i.p.
Experimental: (§2) Median values from the indicated individual measurements are shown, compared using two-tailed Student's t-test.
Data are shown as medians and two-tailed Student's t-test was used to compare groups.
as §1

EBV = EBV viral loads in blood and spleen, humanized mouse model (Taqman real-time PCR); format: in vivo, humanized NSG mice
Experimental: […]. Data are shown as median values from the indicated individual measurements, compared using two-tailed Student's t-test.
as §2, §1

[3] = 5 weeks post infection (FIG. 6A)

O=C(O)c1ccc[n+]([C@@H]2O[C@H](COP(=O)(O)O)[C@@H](O)[C@H]2O)c1 [NaMN]
restoration of EBV's capacity to latently infect/transform B cells in the presence of BMS-986205 [1, 3]: fully restored | transformation efficiency compared to vehicle ([1]; 10 μM BMS-986205 plus 500 μM NaMN, day 0, 5 weeks post infection (FIG. 6A)): slightly increased | rescue of transformation of B cells in the presence of Epacadostat ([1]; 100 μM Epacadostat plus 500 μM NaMN, day 0, 5 weeks post infection (FIG. 6B)): fully rescued | rescue of the capacity of EBV to transform IDO1-blocked B cells [1]: fully rescue

C[C@@H](C(=O)Nc1ccc(Cl)cc1)C1CCC(c2ccnc3ccc(F)cc23)CC1 (stereo partly shown) [BMS-986205]
EBV driven B cell proliferation [2]: inhibited in a dose-dependent manner | EBV driven B cell transformation ([1]; 10 μM BMS-986205 added at 0 hpi, analyzed 5 weeks post infection, vs vehicle): efficiently suppressed

Nc1ccccc1C(=O)C[C@H](N)C(=O)O [L-KYNU, L-Kynurenine]
restoration of EBV's capacity to latently infect/transform B cells in the presence of BMS-986205 [1, 3]: partially restored | rescue of the capacity of EBV to transform IDO1-blocked B cells [1]: partially and dose-dependently rescued

NS(=O)(=O)NCCNc1nonc1C(=NO)Nc1ccc(F)c(Br)c1 [Epacadostat]
effect on EBV-driven B cell tumorigenesis (macroscopic and microscopic tumor burden) (EBV-positive tumors): equally clear | efficacy of IDO1 inhibition by tryptophan and L-kynurenine plasma levels (IDO1): verified | transformation of EBV-infected B cells ([1]; 100 μM Epacadostat added at 0 hpi, 5 weeks post infection (FIG. 6B)): efficiently suppressed | Splenic CD8VCD4^+ T cell ratios (CD8+ T cells; day of sacrifice (FIG. 12C)): remained unchanged | expansion of peripheral blood CD8+ T cells (CD8+ T cells; week 0 to week 5 pi, vs vehicle (FIG. 12A and 12B)): prevented | splenic viral loads (EBV; Epacadostat i.p., 5 weeks pi, vs vehicle-treated (FIG. 11B)): borderline reduced | blood EBV load (EBV; Epacadostat i.p., AUC of viral load 2-5 weeks pi, vs vehicle-treated (FIG. 11A)): efficiently reduced | effect on viral loads (EBV; treated throughout the experiment and also treated for only 2 weeks after infection (data not shown)): observed
